# US20250059610A1, “METHODS OF TREATING TUMOR” (priority 2017, published 2025)
# Legend:
# [1] = system: stage IV or recurrent NSCLC; experiment: Phase 3 study of first-line nivolumab versus platinum-based chemotherapy: efficacy; type: in vivo, human
# Text: The primary endpoint was progression-free survival (PFS) per blinded independent central review in patients with ≥5% PD-L1 expression.
# Eligible adult patients had histologically confirmed squamous or nonsquamous stage IV/recurrent NSCLC, ECOG PS 0-1, and measurable disease per RECIST 1.1,^15 and had received no prior systemic anticancer therapy as primary therapy for advanced or metastatic disease. Patients with central nervous system metastases were eligible if adequately treated and neurologically returned to baseline ≥2 weeks before randomization. Eligible patients had to be off corticosteroids or on a stable or decreasing dose of ≤10 mg daily prednisone (or equivalent). […] Patients with an autoimmune disease or known EGFR mutations or ALK translocations sensitive to available targeted therapy were excluded. Only patients with ≥1% PD-L1 expression were randomized.
# (§1) Maintenance pemetrexed was allowed in patients with nonsquamous NSCLC who had stable disease or response after cycle 4. […] Concomitant systemic corticosteroid treatment (<3-week courses) was allowed for non-autoimmune conditions, including but not limited to treatment-related adverse events (AEs) with a potential immunologic cause.
# Randomization was stratified by PD-L1 expression (<5% vs. ≥5%) and tumor histology (squamous vs. nonsquamous).
# The primary endpoint was PFS based on assessment by blinded independent central review (BICR) in patients with ≥5% PD-L1 expression. Secondary endpoints included PFS per BICR among all randomized patients (≥1% PD-L1 expression), OS among patients with ≥5% PD-L1 expression and among all randomized patients, and ORR per BICR among patients with ≥5% PD-L1 expression.
# (§2) Tumor response was assessed every 6 weeks until week 48 and every 12 weeks thereafter. Safety assessments included the recording of AEs, graded according to the National Cancer Institute Common Terminology Criteria for Adverse Events, version 4.0.
# For efficacy analyses, patients were grouped according to TMB tertile distribution.
# Comparison of PFS and OS between treatment groups was performed by two-sided log-rank tests stratified by PD-L1 expression level (≥5% vs. <5%; for endpoints in all randomized patients) and tumor histology. A stratified Cox proportional-hazards model including the randomized treatment arm as a single covariate was used to estimate HRs and their associated 95% CIs. The Kaplan-Meier method was used to estimate survival curves. ORRs were compared between treatment arms with a two-sided, stratified Cochran-Mantel-Haenszel test. The Clopper-Pearson method was used to estimate ORRs and their exact 95% CIs.
# [2] = system: recurrent small cell lung cancer (SCLC); experiment: Clinical trial of nivolumab alone or with ipilimumab in SCLC, exploratory TMB analysis; type: in vivo, human
# Text: Subjects were selects who had previously been diagnosed with SCLC, and who had previously received at least one prior platinum-containing regimen (FIG. 23).
# The primary objective was to measure the objective response rate (ORR) by per RECIST v1.1. Secondary objectives included monitoring safety, overall survival (OS), progression free survival (PFS), and duration of response (DOR). Prespecified exploratory objectives included biomarker analysis and health status using the EQ-5D instrument.
# TMB was determined by whole exome sequencing, using an Illumina HiSeq 2500 using 2×100-bp paired-end reads, and calculated as the total number of nonsynonymous missense mutations in the tumor. For exploratory analyses, patients were divided into 3 subgroups based on TMB tertile.
# [3] = Phase 3 study of first-line nivolumab versus platinum-based chemotherapy: safety (adverse events)
# Method: as §1, §2
# [4] = monotherapy, every two weeks; cited from earlier work
# NSCLC = details: cited from earlier work
# [5] = exploratory subgroup with ≥50% PD-L1 expression
# [6] = patients with high TMB (upper tertile)
# [7] = patients with ≥5% PD-L1 expression
# [8] = ≥5% PD-L1 expression, responders
# [9] = 10 patients with ≥5% PD-L1 expression, monotherapy cohort
substance,measurement,setting,value
Nivolumab,Complete or partial response,[1]; TMB High,22 (46.8) n (%)
same,Progressive disease,[1]; TMB High,7 (14.9) n (%)
same,Response could not be determined,[1]; TMB High,3 (6.4) n (%)
same,Stable disease,[1]; TMB High,15 (31.9) n (%)
same,Complete or partial response,[1]; TMB Low,11 (17.7) n (%)
same,Progressive disease,[1]; TMB Low,21 (33.9) n (%)
same,Response could not be determined,[1]; TMB Low,5 (8.1) n (%)
same,Stable disease,[1]; TMB Low,25 (40.3) n (%)
same,Complete or partial response,[1]; TMB Low/medium (pooled),25 (22.5) n (%)
same,Progressive disease,[1]; TMB Low/medium (pooled),32 (28.9) n (%)
same,Response could not be determined,[1]; TMB Low/medium (pooled),9 (8.1) n (%)
same,Stable disease,[1]; TMB Low/medium (pooled),45 (40.5) n (%)
same,Complete or partial response,[1]; TMB Medium,14 (28.6) n (%)
same,Progressive disease,[1]; TMB Medium,11 (22.4) n (%)
same,Response could not be determined,[1]; TMB Medium,4 (8.2) n (%)
same,Stable disease,[1]; TMB Medium,20 (40.8) n (%)
same,ORR,[1]; [5],34.1%
same,"OS hazard ratio, nivolumab versus chemotherapy",[1]; [5],0.90
same,"PFS hazard ratio, nivolumab versus chemotherapy",[1]; [5],1.07
same,median PFS,[1]; patients with high TMB,9.7 months
same,"PFS hazard ratio, nivolumab versus chemotherapy",[1]; [6],0.62
same,objective response rate (ORR),[1]; [6],46.8%
same,"OS hazard ratio, nivolumab versus chemotherapy",[1]; [7],1.02
same,"Objective response, % of patients (95% CI)",[1]; [7],26.1 (20.3-32.5) %
same,"Objective response, No. of patients",[1]; [7],55
same,"PFS hazard ratio, nivolumab versus chemotherapy",[1]; [7],1.15
same,median OS,[1]; [7],14.4 months
same,median PFS,[1]; [7],4.2 months
same,"Objective response, % of patients (95% CI)","[1]; patients with ≥5% PD-L1 expression, listed as nivolumab",26.1%
same,Best overall response: Complete response,[1]; ≥5% PD-L1 expression,4 (1.9) no. (%)
same,Best overall response: Could not be determined,[1]; ≥5% PD-L1 expression,17 (8.1) no. (%)
same,Best overall response: Partial response,[1]; ≥5% PD-L1 expression,51 (24.2) no. (%)
same,Best overall response: Progressive disease,[1]; ≥5% PD-L1 expression,58 (27.5) no. (%)
same,Best overall response: Stable disease,[1]; ≥5% PD-L1 expression,81 (38.4) no. (%)
same,Proportion of patients with a best response of progressive disease,[1]; ≥5% PD-L1 expression,27.5%
same,"Objective response, estimated odds ratio (95% CI)","[1]; ≥5% PD-L1 expression, nivolumab versus chemotherapy",0.70 (0.46-1.06)
same,"Duration of response, median",[1]; [8],12.1 mo
same,"Time to response, median",[1]; [8],2.8 mo
same,"Time to response, range",[1]; [8],1.2-13.2 mo
same,ORR,[2]; ITT patients,11.4%
same,ORR,[2]; TMB-evaluable patients,11.3%
same,ORR,[2]; high TMB,about 21.3%
same,OS at 1 year,[2]; high TMB,35.2%
same,PFS at 1 year,[2]; high TMB,21.2%
same,average PFS,[2]; high TMB,about 1.4%
same,median OS,[2]; high TMB,about 5.4%
same,patients with overall survival over 2 years,[2]; initial results of the SCLC trial,14%
same,ORR,[2]; low TMB,about 4.8%
same,OS at 1 year,[2]; low TMB,22.1%
same,average PFS,[2]; low TMB,about 1.3%
same,median OS,[2]; low TMB,about 3.1%
same,ORR,[2]; medium TMB,about 6.8%
same,OS at 1 year,[2]; medium TMB,about 26.0%
same,PFS at 1 year,[2]; medium TMB,3.15%
same,average PFS,[2]; medium TMB,about 1.3%
same,median OS,[2]; medium TMB,about 3.9%
same,Treatment-related adverse events: Any event,[3]; Grade 3-4,47 (17.6) n (%)
same,Not continuing in the treatment period: Study drug toxicity,[3]; in vivo,27 (10.1) n (%)
same,Treatment-related AEs leading to discontinuation of study drug,[3]; in vivo,9.7%
same,Treatment-related adverse events leading to discontinuation: Adrenal insufficiency,[3]; in vivo,1 (0.4) n (%)
same,Treatment-related adverse events leading to discontinuation: Alanine aminotransferase increased,[3]; in vivo,5 (1.9) n (%)
same,Treatment-related adverse events leading to discontinuation: Aphasia,[3]; in vivo,1 (0.4) n (%)
same,Treatment-related adverse events leading to discontinuation: Aspartate aminotransferase increased,[3]; in vivo,5 (1.9) n (%)
same,Treatment-related adverse events leading to discontinuation: Cholestasis,[3]; in vivo,1 (0.4) n (%)
same,Treatment-related adverse events leading to discontinuation: Colitis,[3]; in vivo,2 (0.7) n (%)
same,Treatment-related adverse events leading to discontinuation: Confused state,[3]; in vivo,1 (0.4) n (%)
same,Treatment-related adverse events leading to discontinuation: Hypersensitivity,[3]; in vivo,1 (0.4) n (%)
same,Treatment-related adverse events leading to discontinuation: Interstitial lung disease,[3]; in vivo,1 (0.4) n (%)
same,Treatment-related adverse events leading to discontinuation: Multiple organ dysfunction,[3]; in vivo,1 (0.4) n (%)
same,Treatment-related adverse events leading to discontinuation: Nausea,[3]; in vivo,1 (0.4) n (%)
same,Treatment-related adverse events leading to discontinuation: Pericardial effusion malignant,[3]; in vivo,1 (0.4) n (%)
same,Treatment-related adverse events leading to discontinuation: Pneumonitis,[3]; in vivo,3 (1.1) n (%)
same,Treatment-related adverse events leading to discontinuation: Rash,[3]; in vivo,1 (0.4) n (%)
same,Treatment-related adverse events leading to discontinuation: Rash maculopapular,[3]; in vivo,1 (0.4) n (%)
same,Treatment-related adverse events leading to discontinuation: Rash papular,[3]; in vivo,1 (0.4) n (%)
same,Treatment-related adverse events leading to discontinuation: Stevens-Johnson syndrome,[3]; in vivo,1 (0.4) n (%)
same,Treatment-related adverse events leading to discontinuation: Transaminases increased,[3]; in vivo,1 (0.4) n (%)
same,Treatment-related adverse events: Any event,[3]; in vivo,190 (71.2) n (%)
same,Treatment-related adverse events: Leukopenia,[3]; in vivo,0 n (%)
same,Treatment-related adverse events: Neutropenia,[3]; in vivo,0 n (%)
same,Treatment-related adverse events: Neutrophil count decreased,[3]; in vivo,1 (0.4) n (%)
same,Treatment-related serious adverse events: Anemia,[3]; in vivo,0 n (%)
same,Treatment-related serious adverse events: Aspartate aminotransferase increased,[3]; in vivo,6 (2.2) n (%)
same,Treatment-related serious adverse events: Febrile neutropenia,[3]; in vivo,0 n (%)
same,Treatment-related serious adverse events: Thrombocytopenia,[3]; in vivo,0 n (%)
same,"maximum tolerated dose (MTD), not reached up to",[4],> 10 mg/kg
same,PFS rate at 24 weeks,NSCLC; [9],70%
same,median PFS,NSCLC; [9],10.6 months
same,objective response rate (ORR),NSCLC; [9],50%
same,ORR,NSCLC; patients with ≥1% PD-L1 expression,28%
